# Assay results as given in US8551456B2, “Combination therapy and methods for treating bacterial biofilms” (priority 2010, dated 2013).
# Entries after “also recorded” stand apart in the source; their conditions may differ.
# Tests used:
# [1] = tested on: P. aeruginosa wild-type PAO1 biofilms; experiment: Combined TMP and antibiotic treatment of biofilms in the dark, CSLM LIVE/DEAD; format: cell-based, Pseudomonas aeruginosa; details: for Effect on P. aeruginosa biofilm cells, TMP + Antibiotic, pH 7 / gain in killing by the addition of TMP to the antibiotic / red (dead) staining with antibiotic + TMP versus antibiotic alone (FIGS. 5A and 5B): TMP 225 μM 10 min then antibiotic 100 μg ml^−1 2 h
# Experimental: Biofilms were grown on glass slides as described above. […] Slides were incubated in tobramycin for 2 h at 37° C. All incubations were performed in the dark. Cell viability within biofilms was assessed using the LIVE/DEAD BacLight bacterial viability kit and visualized with an Olympus FV1000 CSLM as described above.
# Bacterial viability was determined using the LIVE/DEAD BacLight Bacterial Viability assay. The images show horizontal optical sections from the midpoint of the biofilms flanked by vertical optical sections in biofilms treated with panel A showing tobramycin alone and panel B showing TMP+tobramycin.
# Using the same protocol used in Example 3 for tobramycin, additional antibiotics were tested to aid in the elucidation of the mechanism of bacterial biofilm disruption in the absence of photoactivation.
# Bacterial viability was determined using the LIVE/DEAD BacLight Bacterial Viability assay. Cells staining red are considered dead while cells staining green are alive. […] In summary, panels C, E, G, I, K and M received the respective antibiotic alone, and panels B, D, F, H, J, L and N were treated with the combination of TMP and antibiotic.
# [2] = tested on: P. aeruginosa PAO1 wild-type biofilms; experiment: Viable plate counts of cells from static biofilms after TMP and irradiation; format: cell-based, Pseudomonas aeruginosa; details: wild-type PAO1, 225 μM TMP, 10 min of irradiation
# Experimental: (§1) P. aeruginosa PAO1 wild-type and isogenic pqsA mutant strain were obtained from Eb Pesci (East Carolina University School of Medicine). P. aeruginosa strains were grown aerobically with shaking in Minimal Salts medium (40 mM K2HPO4, 20 mM KH2PO4, 7.6 mM [NH4]2SO4, 0.2 mM MgSO4.7H2O, 9.2×10^−3 mMFeCl3.6H2O, 0.2% [wt/vol] glucose; adjusted pH 7.0) at 37° C. (4, 17). For static biofilms, P. aeruginosa strains were grown overnight in Minimal Salts medium at 37° C. with shaking. The following day, bacteria were diluted in fresh media to an OD590nm of 0.15. Five hundred microliters of the standardized culture was added to sterile polystyrene cuvettes and incubated statically for 24 h at 37° C. For examination of static biofilms using confocal laser scanning microscopy (CSLM), sterile microscope slides were submerged in standardized cell suspensions and incubated statically at 37° C. for 24 h.
# (§2) Samples were irradiated for various exposure times at an intensity of 192 Joules/cm^2.
# (§3) Static biofilms formed in sterile polystyrene cuvettes, as described above, were used to quantify cell survival. […] Cells released from the biofilm following treatment were collected from the supernatant by centrifugation and resuspended in PBS. The remaining attached biofilm was washed once and resuspended in PBS. The number of viable cells in the supernatant and attached biofilms following treatment were determined by plating on LB (1.5% agar) plates that were incubated for 24 h at 37° C.
# (§4) Cells were collected from the supernatant of treated biofilms, as well as from the remaining attached biofilm. Cell suspensions were diluted and plated onto LB (1.5% agar) plates and incubated 24 h at 37° C. CFU were used to determine the surviving fraction. […] The recovered supernatants contained the cells sloughed off as the result of TPM exposure and irradiation.
# [3] = tested on: P. aeruginosa pqsA mutant biofilms; experiment: as above; format: cell-based, Pseudomonas aeruginosa; details: 225 μM TMP, irradiated 10 min
# Experimental: as §1, §2, §3, §4
# [4] = tested on: P. aeruginosa PAO1 wild-type biofilms; experiment: CSLM of static biofilms with LIVE/DEAD BacLight viability assay; format: cell-based, Pseudomonas aeruginosa
# Experimental: as §1, §2
# Negative control slides were transferred to 50 ml tubes containing only PBS. […] Bacterial viability was assessed in biofilm cultures using the LIVE/DEAD BacLight bacterial viability assay (Molecular Probes Inc., Eugene, Oreg.), containing SYTO9 and propidium iodide dyes. Biofilms were visualized with an Olympus FV1000 CSLM (Olympus America, Center Valley, Pa.) using a 60× oil immersion objective. Biofilm images were acquired in 0.4 μm optical sections for the entire thickness of the biofilm.
# Bacterial viability was determined using the LIVE/DEAD BacLight Bacterial Viability assay. The cells in panels C-F show significant staining in red (considered dead) while cells in panels A, B, G and H show predominate staining in green (alive). […] The few remaining attached cells were nonviable.
# [5] = tested on: P. aeruginosa pqsA mutant biofilms; format: cell-based, Pseudomonas aeruginosa
# Experimental: as §1, §2
# Negative control slides were transferred to 50 ml tubes containing only PBS. […] Bacterial viability was assessed in biofilm cultures using the LIVE/DEAD BacLight bacterial viability assay (Molecular Probes Inc., Eugene, Oreg.), containing SYTO9 and propidium iodide dyes. […]
# Bacterial viability was determined using the LIVE/DEAD BacLight Bacterial Viability assay.
# pUCP18 plasmid DNA = experiment: TMP induced degradation of plasmid DNA, agarose gel electrophoresis; format: biochemical; details: 100 or 225 μM TMP
# Experimental: Plasmid DNA with and without TMP was irradiated for designated times. Prior to light exposure, samples of DNA supplemented with TMP were collected and incubated in the dark for comparison. DNA was examined using agarose gel electrophoresis.
# The untreated control samples had the three expected forms of plasmid DNA: covalently closed circles, relaxed circular, and linear cut (FIG. 3: lanes 1 and 7). Plasmid DNA exposed to light only appeared similar to the control (FIG. 3: lanes 2 and 8).
# [6] = tested on: extracellular DNA in P. aeruginosa wild-type biofilms; experiment: Quantification of extracellular biofilm DNA with DNA stains such as Pico Green; format: cell-based, Pseudomonas aeruginosa; details: data not shown, possible competition of TMP with Pico Green
# [7] = tested on: P. aeruginosa PAO1 planktonic cell populations; details: TMP 2.5 mg ml^−1; cited from earlier work
# [8] = tested on: wild-type PAO1 isolates grown in biofilms; details: cited from earlier work
# S. aureus = details: cited from earlier work
compound,measurement,setting,value
NC[C@H]1O[C@H](O[C@H]2[C@H](O)[C@@H](O[C@H]3O[C@H](CO)[C@@H](O)[C@H](N)[C@H]3O)[C@H](N)C[C@@H]2N)[C@H](O)[C@@H](O)[C@@H]1O [kanamycin],"Effect on P. aeruginosa biofilm cells, TMP + Antibiotic, pH 7",[1]; dark,+
CN[C@H](CC(C)C)C(=O)N[C@H]1C(=O)N[C@@H](CC(N)=O)C(=O)N[C@H]2C(=O)N[C@H]3C(=O)N[C@H](C(=O)N[C@H](C(=O)O)c4cc(O)cc(O)c4-c4cc3ccc4O)[C@H](O)c3ccc(c(Cl)c3)Oc3cc2cc(c3O[C@@H]2O[C@H](CO)[C@@H](O)[C@H](O)[C@H]2O[C@H]2C[C@](C)(N)[C@H](O)[C@H](C)O2)Oc2ccc(cc2Cl)[C@H]1O [vancomycin],gain in killing by the addition of TMP to the antibiotic,[1]; dark,substantially enhanced killing
same,red (dead) staining with antibiotic + TMP versus antibiotic alone (FIGS. 5A and 5B),[1]; dark,predominately red staining
NC[C@H]1O[C@H](O[C@H]2[C@H](O)[C@@H](O[C@H]3O[C@H](CO)[C@@H](O)[C@H](N)[C@H]3O)[C@H](N)C[C@@H]2N)[C@H](N)C[C@@H]1O [tobramycin],"cell viability and biofilm clearance, TMP then antibiotic","[1]; TMP 225 μM 10 min then tobramycin 100 μg ml^−1 2 h, dark",predominate amount of cells staining red (dead); also recorded: substantial clearance of the biofilms and greater loss of cell viability throughout the biofilms than with either single treatment; also recorded: significant biofilm clearance and enhanced killing of cells
same,effect of pH on the combination of tobramycin and TMP,"[1]; dark conditions, pH range of 4.0 to 8.0",enhancement of killing
same,"cell viability and biofilm clearance, antibiotic alone","[1]; tobramycin alone 100 μg ml^−1, 2 h, dark, no TMP",cells predominately staining green (alive); also recorded: reduction in cell viability which was limited to cells near the surface of the biofilms; also recorded: did not result in substantial biofilm clearance and led to minimal killing of biofilm associated cells
CC1(C)S[C@@H]2[C@H](NC(=O)C(C(=O)O)c3ccccc3)C(=O)N2[C@H]1C(=O)O (stereo partly drawn) [carbenicillin],gain in killing by the addition of TMP to the antibiotic,[1]; dark,no enhanced killing
same,red (dead) staining with antibiotic + TMP versus antibiotic alone (FIGS. 5A and 5B),[1]; dark,little or no increase in red staining
same,"Effect on P. aeruginosa biofilm cells, TMP + Antibiotic, pH 7",[1]; dark,−
"C[n+]1ccc(-c2c3nc(c(-c4cc[n+](C)cc4)c4ccc([nH]4)c(-c4cc[n+](C)cc4)c4nc(c(-c5cc[n+](C)cc5)c5ccc2[nH]5)C=C4)C=C3)cc1.Cc1ccc(S(=O)(=O)[O-])cc1.Cc1ccc(S(=O)(=O)[O-])cc1.Cc1ccc(S(=O)(=O)[O-])cc1.Cc1ccc(S(=O)(=O)[O-])cc1 [TMP, 5,10,15,20-tetrakis(1-methyl-pyridino)-21H,23H-porphine, tetra-p-tosylate salt]",decrease in viable cells in the attached biofilm population,[2]; attached cells,4.1 log10
same,reduction in the number of viable cells in the recovered supernatants,[2]; supernatant cells,4.5 log10
same,decrease in cell viability of attached cells,[3]; attached cells,3.9 log10
same,reduction in cell viability of cells collected from supernatants,[3]; supernatant cells,4.2 log10
same,"biofilm density and cell viability (CSLM, LIVE/DEAD)","[4]; wild-type PAO1, 100 μM TMP, irradiated 10 min",decrease in biofilm density and the majority of cells within the biofilm were non-viable
same,"biofilm disruption and clearance (CSLM, LIVE/DEAD)","[4]; wild-type PAO1, 225 μM TMP, 10 min of irradiation",nearly complete disruption and clearance; also recorded: completely disrupted with few cells remaining attached
same,biofilm structure and cell viability without photoactivation (dark toxicity),"[4]; wild-type PAO1, 225 μM TMP, dark",expanded in volume without a loss of cell viability; also recorded: no dark toxicity; also recorded: did not lead to clearance of wild-type biofilms
same,cell viability and biofilm architecture without photoactivation,"[5]; 225 μM TMP, dark",did not affect cell viability or disrupt the architecture
same,"cell viability of attached cells (CSLM, LIVE/DEAD)","[5]; 100 or 225 μM TMP, irradiated 10 min",decrease in cell viability of attached cells; also recorded: high levels of killing
same,degradation of plasmid DNA,pUCP18 plasmid DNA; irradiation for 5 or 30 min,complete degradation
same,migration of plasmid DNA in gel without photoactivation,pUCP18 plasmid DNA; nonirradiated,retarded migration of DNA; also recorded: migration was retarded
same,biofilm DNA after TMP and light,[6]; TMP and light,decrease was observed in biofilm DNA
same,biofilm DNA after TMP in the absence of light,"[6]; TMP, no light",decrease in biofilm DNA
same,toxicity to human fibroblasts,human fibroblasts,does not appear to be toxic to human fibroblasts
same,reduction of planktonic cell populations,[7],> 10^2 cfu ml^−1
same,reduction of wild-type PAO1 isolates grown in biofilms,"[8]; TMP 5.0 mg ml^−1, irradiated for 5 min",1.2 log10
same,TMP concentration necessary to achieve the same level of killing in bacteria enmeshed within biofilms,[8]; same level of killing as planktonic (>10^2 cfu ml^−1),5.0 mg/mL
same,S. aureus survival,S. aureus; TMP alone,reduce S. aureus survival
same,effect on established S. aureus biofilms,S. aureus; TMP combined with vancomycin,disrupt established biofilms
gentamicin,gain in killing by the addition of TMP to the antibiotic,[1]; dark,behaved similarly to tobramycin
same,red (dead) staining with antibiotic + TMP versus antibiotic alone (FIGS. 5A and 5B),[1]; dark,significant increased red staining
O=C(O)c1cn(C2CC2)c2cc(N3CCNCC3)c(F)cc2c1=O [Ciprofloxacin],gain in killing by the addition of TMP to the antibiotic,[1]; dark,no gain in killing
same,red (dead) staining with antibiotic + TMP versus antibiotic alone (FIGS. 5A and 5B),[1]; dark,little or no increase in red staining
same,"Effect on P. aeruginosa biofilm cells, TMP + Antibiotic, pH 7",[1]; dark,+
